Laboratory results taken from ChEMBL document CHEMBL1139626, “Total asymmetric synthesis of (-)-conduramine B-1 and of its enantiomer. N-Benzyl derivatives of conduramine B-1 are beta-glucosidase inhibitors” (Bioorg Med Chem Lett, 2005).
pIC50, pKi: −log10 of the molar value. The source made the active and inactive calls. No cut-off for these calls is given here.

Columns and labels:
[1] = Inhibitory concentration against Beta Glucosidase Almonds; design: species or system Prunus dulcis
[2] = target: T1, Glucoamylase 1 (Rhizopus oryzae) (UniProt P07683); experiment: Inhibition against Amyloglucosidase from Rhizopus mold at 1 mM; (ni=no inhibition)
T1 sequence (whole entry): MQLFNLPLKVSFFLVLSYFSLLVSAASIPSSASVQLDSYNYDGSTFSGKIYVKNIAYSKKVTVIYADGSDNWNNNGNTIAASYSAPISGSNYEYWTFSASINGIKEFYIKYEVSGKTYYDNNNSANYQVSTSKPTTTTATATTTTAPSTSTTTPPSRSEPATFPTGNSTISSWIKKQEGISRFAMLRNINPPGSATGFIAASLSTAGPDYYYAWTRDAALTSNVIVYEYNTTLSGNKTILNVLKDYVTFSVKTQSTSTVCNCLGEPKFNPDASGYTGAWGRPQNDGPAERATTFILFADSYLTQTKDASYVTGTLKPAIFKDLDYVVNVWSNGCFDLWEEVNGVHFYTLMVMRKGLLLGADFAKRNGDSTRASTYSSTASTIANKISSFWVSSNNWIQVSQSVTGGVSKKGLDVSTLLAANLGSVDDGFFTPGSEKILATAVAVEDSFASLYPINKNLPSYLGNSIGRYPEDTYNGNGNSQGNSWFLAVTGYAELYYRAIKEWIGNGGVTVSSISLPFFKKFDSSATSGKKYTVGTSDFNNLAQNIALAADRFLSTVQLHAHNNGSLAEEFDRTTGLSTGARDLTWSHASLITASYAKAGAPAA

Prunus dulcis [3] = experiment: Percent inhibition against Beta Glucosidase from Almonds at 1 mM
[4] = target: T2, Exo-1,4-beta-xylosidase xlnD (Aspergillus niger) (UniProt O00089); experiment: Inhibition against Beta-xylosidase from Aspergillus niger at 1 mM; (ni=no inhibition)
T2 sequence (whole entry): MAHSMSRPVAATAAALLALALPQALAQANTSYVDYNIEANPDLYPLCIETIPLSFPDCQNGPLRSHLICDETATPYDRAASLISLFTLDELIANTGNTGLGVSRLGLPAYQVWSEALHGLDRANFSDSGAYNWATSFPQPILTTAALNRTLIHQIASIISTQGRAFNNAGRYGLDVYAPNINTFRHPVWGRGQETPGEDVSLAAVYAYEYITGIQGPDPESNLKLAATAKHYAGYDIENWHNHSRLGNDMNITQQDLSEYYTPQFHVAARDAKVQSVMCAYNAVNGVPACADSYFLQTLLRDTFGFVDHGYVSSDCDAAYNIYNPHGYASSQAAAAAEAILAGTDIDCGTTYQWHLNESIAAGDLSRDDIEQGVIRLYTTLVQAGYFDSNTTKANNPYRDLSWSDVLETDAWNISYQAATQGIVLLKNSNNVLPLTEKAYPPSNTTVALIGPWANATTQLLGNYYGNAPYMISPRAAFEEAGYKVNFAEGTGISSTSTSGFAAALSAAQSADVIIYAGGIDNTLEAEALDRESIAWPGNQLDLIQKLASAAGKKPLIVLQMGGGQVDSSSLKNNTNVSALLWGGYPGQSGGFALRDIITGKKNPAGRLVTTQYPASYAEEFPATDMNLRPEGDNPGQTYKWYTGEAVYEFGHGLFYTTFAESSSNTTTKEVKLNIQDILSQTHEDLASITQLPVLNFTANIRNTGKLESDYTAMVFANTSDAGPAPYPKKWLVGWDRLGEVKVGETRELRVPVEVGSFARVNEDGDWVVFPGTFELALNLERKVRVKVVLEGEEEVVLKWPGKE

[5] = target: Glucoamylase (Aspergillus niger) (UniProt P69328); experiment: Inhibition against Amyloglucosidase from Aspergillus niger at 1 mM; (ni=no inhibition)
Glucoamylase (Aspergillus niger), sequence (P69328 whole entry): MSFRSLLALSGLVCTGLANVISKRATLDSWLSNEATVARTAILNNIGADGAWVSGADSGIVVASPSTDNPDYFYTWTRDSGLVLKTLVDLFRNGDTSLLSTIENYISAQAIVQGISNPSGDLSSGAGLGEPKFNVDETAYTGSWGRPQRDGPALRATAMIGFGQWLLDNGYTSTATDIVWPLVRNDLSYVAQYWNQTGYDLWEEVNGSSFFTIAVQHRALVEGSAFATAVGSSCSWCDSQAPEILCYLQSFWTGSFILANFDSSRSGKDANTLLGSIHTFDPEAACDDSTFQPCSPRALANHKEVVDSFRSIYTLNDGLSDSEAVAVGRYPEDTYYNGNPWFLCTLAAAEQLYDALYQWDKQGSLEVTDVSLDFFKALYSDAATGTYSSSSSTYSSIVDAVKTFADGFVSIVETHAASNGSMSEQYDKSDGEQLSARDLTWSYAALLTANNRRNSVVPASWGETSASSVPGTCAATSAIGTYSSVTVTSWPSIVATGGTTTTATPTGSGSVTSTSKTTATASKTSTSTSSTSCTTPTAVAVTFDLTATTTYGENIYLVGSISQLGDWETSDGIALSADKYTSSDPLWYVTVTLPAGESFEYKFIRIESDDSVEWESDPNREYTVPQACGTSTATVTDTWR

[6] = target: T3, Alpha-glucosidase (Oryza sativa Japonica Group) (UniProt Q9LGC6); experiment: Inhibition against Alpha Glucosidase from rice at 1 mM; (ni=no inhibition)
T3 sequence (whole entry): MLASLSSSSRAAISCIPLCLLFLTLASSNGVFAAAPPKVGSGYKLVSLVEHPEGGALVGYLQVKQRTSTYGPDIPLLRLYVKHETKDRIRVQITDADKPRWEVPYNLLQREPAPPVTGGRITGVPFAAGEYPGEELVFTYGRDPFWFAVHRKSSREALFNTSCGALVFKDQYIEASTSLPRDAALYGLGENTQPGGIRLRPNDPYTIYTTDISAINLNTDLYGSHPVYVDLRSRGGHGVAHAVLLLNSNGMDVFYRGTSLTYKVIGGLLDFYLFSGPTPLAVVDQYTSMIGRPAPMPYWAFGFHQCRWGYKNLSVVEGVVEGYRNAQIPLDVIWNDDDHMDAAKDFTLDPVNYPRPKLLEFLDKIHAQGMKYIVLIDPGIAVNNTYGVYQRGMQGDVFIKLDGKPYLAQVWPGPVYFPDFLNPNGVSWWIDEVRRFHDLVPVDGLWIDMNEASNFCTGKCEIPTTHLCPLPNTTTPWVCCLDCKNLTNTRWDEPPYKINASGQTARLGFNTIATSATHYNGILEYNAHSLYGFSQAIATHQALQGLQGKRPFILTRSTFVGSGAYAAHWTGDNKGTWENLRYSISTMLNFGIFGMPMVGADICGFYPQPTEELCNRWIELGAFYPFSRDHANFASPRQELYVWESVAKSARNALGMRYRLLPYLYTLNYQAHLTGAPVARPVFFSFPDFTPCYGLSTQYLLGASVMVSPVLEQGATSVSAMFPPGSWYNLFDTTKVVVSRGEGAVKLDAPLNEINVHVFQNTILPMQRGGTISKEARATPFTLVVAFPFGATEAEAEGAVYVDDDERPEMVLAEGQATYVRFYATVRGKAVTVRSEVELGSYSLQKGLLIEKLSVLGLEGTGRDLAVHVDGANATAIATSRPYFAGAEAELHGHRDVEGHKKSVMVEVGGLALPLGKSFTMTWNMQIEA

[7] = Inhibition against Alpha Glucosidase from yeast at 1 mM; (ni=no inhibition)
[8] = Inhibitory concentration against Beta Glucosidase from Almonds; design: species or system Prunus dulcis
Prunus dulcis [9] = experiment: Inhibition against Beta Glucosidase from Almonds at 1 mM
[10] = target: T1, Glucoamylase 1 (Rhizopus oryzae); experiment: Percent inhibition against Amyloglucosidase from Rhizopus mold at 1 mM
[11] = target: Beta-glucosidase A (Caldicellulosiruptor saccharolyticus) (UniProt P10482); experiment: Percent inhibition against Beta Glucosidase from Caldocellum saccharolyticum at 1 mM
Beta-glucosidase A (Caldicellulosiruptor saccharolyticus), sequence (P10482 whole entry): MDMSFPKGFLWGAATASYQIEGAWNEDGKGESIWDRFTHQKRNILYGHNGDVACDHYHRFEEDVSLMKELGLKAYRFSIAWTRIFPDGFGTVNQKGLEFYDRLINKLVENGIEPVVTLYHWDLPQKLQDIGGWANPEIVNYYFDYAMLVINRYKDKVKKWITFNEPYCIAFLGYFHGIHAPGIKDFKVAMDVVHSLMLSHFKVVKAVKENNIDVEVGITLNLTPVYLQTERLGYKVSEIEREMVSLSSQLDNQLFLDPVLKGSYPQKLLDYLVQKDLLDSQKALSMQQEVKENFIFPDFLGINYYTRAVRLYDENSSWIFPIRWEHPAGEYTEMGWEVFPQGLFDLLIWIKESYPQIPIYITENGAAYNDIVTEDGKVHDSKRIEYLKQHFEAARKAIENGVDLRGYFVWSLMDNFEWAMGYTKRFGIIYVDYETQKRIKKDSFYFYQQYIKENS

[12] = target: T2, Exo-1,4-beta-xylosidase xlnD (Aspergillus niger); experiment: Inhibition against Beta-xylosidase from Aspergillus niger at 1 mM concentration
[13] = target: Glucoamylase (Aspergillus niger) (UniProt P69328); experiment: Percent inhibition against Amyloglucosidase from Aspergillus niger at 1 mM concentration
[14] = target: T2, Exo-1,4-beta-xylosidase xlnD (Aspergillus niger); experiment: Percent inhibition against Beta-xylosidase from Aspergillus niger at 1 mM; (ni=no inhibition)
[15] = target: T2, Exo-1,4-beta-xylosidase xlnD (Aspergillus niger); experiment: Percent inhibition against Beta-xylosidase from Aspergillus niger at 1 mM
Beta-glucosidase A [16] = target: T4, Beta-glucosidase A (Caldicellulosiruptor saccharolyticus, UniProt P10482); experiment: Inhibitory concentration against Beta Glucosidase from Caldocellum saccharolyticum
T4 sequence (P10482 whole entry): as above

[17] = Inhibitory activity against Beta Glucosidase from Almonds; design: species or system Prunus dulcis
Beta-glucosidase A [18] = target: T4, Beta-glucosidase A; experiment: Inhibitory concentration against Beta Glucosidase Caldocellum saccharolyticum
[19] = Percent inhibition against Alpha Glucosidase from yeast at 1 mM
Prunus dulcis [20] = experiment: Inhibition against Beta Glucosidase from Almonds at 1 mM; (ni=no inhibition)
[21] = target: Beta-glucosidase A (Caldicellulosiruptor saccharolyticus) (UniProt P10482); experiment: Inhibition against Beta Glucosidase from Caldocellum saccharolyticum at 1 mM; (ni=no inhibition)

inhibition [2]	inhibition (Prunus dulcis [3]) [%]	inhibition [5]	inhibition [6]	inhibition [7]	pIC50 [8]	inhibition [10] [%]	inhibition [11] [%]	SMILES	inhibition [4]	other results
inactive	96	inactive	inactive	inactive			43	OC1C=CC(NCc2ccccc2)C(O)C1O (stereo in doubt; 4e)		inhibition [12]: 74%
	93		inactive	inactive		57	56	Oc1ccc(CNC2C=CC(O)C(O)C2O)cc1 (stereo in doubt; 4f)		inhibition [13]: 31%; inhibition [14]: 67%
inactive	95	inactive	inactive	inactive			68	COc1ccc(CNC2C=CC(O)C(O)C2O)cc1 (stereo in doubt; 4g)		inhibition [15]: 74%
					4.46			OC1C=CC(NCc2ccc(Cl)cc2)C(O)C1O (stereo in doubt; 4h)		pIC50 (Beta-glucosidase A [16]): 3.73
					4.49			OC1C=CC(NCc2ccc(-c3ccccc3)cc2)C(O)C1O (stereo in doubt; 4i)		pKi [17]: 5.10; pIC50 (Beta-glucosidase A [18]): 4.46
					4.37			OC1C=CC(NCc2ccc(Oc3ccccc3)cc2)C(O)C1O (stereo in doubt; 4j)		pKi [17]: 4.89; pIC50 (Beta-glucosidase A [16]): 4.28
		inactive	inactive			29		Oc1ccccc1CNC1C=CC(O)C(O)C1O (stereo in doubt; 4k)	inactive	inhibition [19]: 41%; inhibition (Prunus dulcis [20]): inactive; inhibition [21]: inactive

SMILES	inhibition [2]	inhibition (Prunus dulcis [3]) [%]	inhibition [5]	inhibition [6]	inhibition [7]	pIC50 [8]	inhibition [10] [%]	inhibition [11] [%]	inhibition [4]	other results
CCCCCCCCNC1C=CC(O)C(O)C1O (racemic)	inactive	85	inactive	inactive	inactive				inactive	pIC50 [1]: 4.16
CCCNC1C=CC(O)C(O)C1O (racemic)			inactive	inactive	inactive	4.18	30		inactive	inhibition (Prunus dulcis [9]): 80%
